Source: article PMC8264504, “Identification of Koumine as a Translocator Protein 18 kDa Positive Allosteric Modulator for the Treatment of Inflammatory and Neuropathic Pain” (Frontiers in Pharmacology, 2021)
Like-named read-outs stand apart in the source and are kept apart here.

Assays:
[1] = molecular target: T1, mouse TSPO recombinant protein (Mus musculus, UniProt P50637); assay: SPR multicycle kinetics, mouse TSPO in a lipid-free environment; type: binding; details: CM5 chip, anti-His capture, read-out: affinity to mouse TSPO
T1 construct: made in house; host or cells: Escherichia coli BL21(DE3) pLysS, pET15b vector
Description: (§1) Cells of the BL21(DE3) pLysS Escherichia coli strain were transformed with the pET15b vector, from which the expression of mouse TSPO recombinant protein was induced by 1 mM isopropyl-1-thiol-β-D-galactopyranoside as previously described ([Robert and Lacapère, 2010]; [Senicourt et al., 2017]). Cells were harvested and resuspended in lysis buffer (150 mM NaCl and 50 mM HEPES-Na, pH 7.8) with the addition of 1 mg/ml lysozyme and sonicated thoroughly. The lysate was centrifuged at 15,000 g at 4°C for 20 min to pellet the insoluble inclusion bodies. The final pellet of inclusion bodies was solubilized in binding buffer (150 mM NaCl, 50 mM HEPES-Na, 1% SDS (wt/vol), pH 7.8) and was purified by the Ni-NTA gravity flow column.
(§2) SPR analyses were performed at 25°C with a Biacore T200 instrument. For proteoliposomes and liposomes (reference), they were immobilized on a series S L1 sensor chips. It is possible that the repeated regeneration steps in the multicycle kinetics process impairs the activity of TSPO proteoliposomes, thus we were unable to use multicycle kinetics to effectively determine the affinity of TSPO and its ligands. Therefore, the single cycle kinetics, which assumes to be as robust as the classical multicycle kinetics for measuring affinity, was used. Kinetic rate constants for the various analytes were determined using single cycle protocols where five serial 2-fold dilutions of the analytes were injected for 180 s without intervening regeneration, followed by a 300 s dissociation phase after the last injection. Interactions were measured at 30 μl/min. PBS, with addition of 1% DMSO (pH 7.4), was used as running buffer. Three consecutive 1 min injections with 10 μl/min of glycine HCl 3.0 at the end of each single-cycle kinetics regenerated the chip. For mouse TSPO in a lipid-free environment, affinity was measured according to established methods with minor modifications ([Zhang et al., 2015]). Briefly, HBS-EP buffer was used as the running buffer. […]

rat C6 glioma cells = assay: Pregnenolone production; type: cell-based; details: for EC50: read-out: EC50, pregnenolone production
[2] = molecular target: T2, mouse TSPO recombinant protein (TSPO proteoliposomes) (Mus musculus, UniProt P50637); assay: SPR single-cycle kinetics on TSPO proteoliposomes; type: binding
T2 construct: His tag; made in house; host or cells: Escherichia coli BL21(DE3) pLysS, pET15b vector
Description: as §1
Proteoliposomes composed of DMPC/DMPE (9:1) and TSPO in a 5:1 (wt/wt) ratio were prepared using a previously described method ([Ostuni et al., 2010]). Liposomes composed of DMPC/DMPE (9:1) were prepared as published previously ([Hatty et al., 2014]). A few milligrams of DMPC and DMPE were weighed into a round-bottom glass flask, and chloroform and methanol were added to dissolve them. A thin lipid film was prepared by a rotary evaporator and dried under vacuum for at least 3 h to remove all traces of chloroform and methanol. The dry lipid film was resuspended in PBS buffer (10 mM phosphate buffer, 2.7 mM KCl, 137 mM NaCl) to a concentration of 1 mg/ml, hydrated for 2 h at 45–55°C, and finally sonicated to produce small unilamellar vesicles. The suspension of small unilamellar vesicles was then kept at 45°C for use on the same day. The sizes of proteoliposomes and liposomes were determined by dynamic light scattering using Nicomp 380 Z3000 instrument (Parficle Sizing Systems, America).
as §2, with “Three consecutive 1 min injections with 10 μl/min of glycine HCl 3.0 at the end of each single-cycle kinetics regenerated the chip.” left out, “2015]).” for “2015]). Briefly, HBS-EP buffer was used as the running buffer.”

[3] = tested on: T98G human glioblastoma cells; assay: Cell viability assay (CellTiter Blue); type: cell-based; details: same dosing regimen as proliferation, 48 h
Description: T98G cells were plated and treated as in the proliferation assays. After 48 h of drug exposure, CellTiter Blue Reagent (Promega) was added to the cells and incubated for 4 h in 5% CO2 at 37°C. Absorption was measured at 570 nm using 600 nm as a reference wavelength.

Row | SMILES | Kd [1] | EC20 concentration, pregnenolone production (rat C6 glioma cells) | increase in pregnenolone production (rat C6 glioma cells) | EC50 (rat C6 glioma cells) | Kd ([2]; SPR single-cycle kinetics, TSPO proteoliposomes on L1 chip, 25°C, Langmuir 1:1 fit, read-out: KD) | cell viability [3] | EC50 (rat C6 glioma cells; Rattus norvegicus, C6 glioma, 2 h) | Emax (rat C6 glioma cells; Rattus norvegicus, C6 glioma, 2 h, read-out: Emax, pregnenolone production) | modulation of pregnenolone production activity (rat C6 glioma cells; koumine with an EC20 concentration of PK11195 (∼27 μM)) | modulation of pregnenolone production activity (rat C6 glioma cells; koumine with an EC20 concentration of Ro5-4864 (∼11 μM)) | Kd [2]
1 | CN1C(=O)CN=C(c2ccc(Cl)cc2)c2cc(Cl)ccc21 [Ro5-4864, reference compound] | 170 ± 6.07 µM | ~11 µM | approximately 50% | 29 µM | 0.00206 ± 0.00011 µM | not significantly affected |  |  |  |  | 
2 | C=C[C@@]12CN(C)[C@H]3C[C@]14C(=Nc1ccccc14)[C@H]1C[C@@H]2[C@@H]3CO1 [koumine] | 97.4 ± 1.76 µM |  |  |  |  | not significantly affected | 270 µM | 33% | did not significantly increase | did not significantly increase | 0.00086 ± 7e-05 µM
